According to ChEMBL document CHEMBL3124829, “Discovery of SCH 900188: A Potent Hepatitis C Virus NS5B Polymerase Inhibitor Prodrug As a Development Candidate” (ACS Med Chem Lett, 2014):
pEC50, pIC50: −log10 of the molar value. Active and inactive are the calls of the source. The rule behind the calls is not given here.

Tests used:
Rhesus monkey [1] = test: AUC (0 to 24 hrs) in monkey assessed as 4-Fluoro-6-((7-fluoro-4-oxo-3,4-dihydroquinazolin-6-yl)methyl)-8-(2-oxo-1,2-dihydropyridin-3-yl)-6H-furo[2,3-e]indole-7-carboxylic acid at 3 mg/kg, po; type: ADME, organism-based, Macaca mulatta, Plasma; set-up: time < 24 hr, dose 3 mg/kg, route oral; details: in vivo
Rattus norvegicus [2] = species: Rattus norvegicus; test: Cmax in rat assessed as 4-Fluoro-6-((7-fluoro-4-oxo-3,4-dihydroquinazolin-6-yl)methyl)-8-(2-oxo-1,2-dihydropyridin-3-yl)-6H-furo[2,3-e]indole-7-carboxylic acid; type: ADME, organism-based; details: in vivo
Rhesus monkey [3] = test: Oral bioavailability in monkey assessed as 4-Fluoro-6-((7-fluoro-4-oxo-3,4-dihydroquinazolin-6-yl)methyl)-8-(2-oxo-1,2-dihydropyridin-3-yl)-6H-furo[2,3-e]indole-7-carboxylic acid; type: ADME, organism-based, Macaca mulatta; details: in vivo
Salmonella typhimurium = test: Mutagenic activity in Salmonella typhimurium by mini Ames test; type: toxicity, organism-based; details: salmonella enterica subsp. enterica serovar typhimurium
Canis familiaris [4] = species: Canis familiaris; test: Cmax in dog assessed as 4-Fluoro-6-((7-fluoro-4-oxo-3,4-dihydroquinazolin-6-yl)methyl)-8-(2-oxo-1,2-dihydropyridin-3-yl)-6H-furo[2,3-e]indole-7-carboxylic acid; type: ADME, organism-based, Canis lupus familiaris; details: in vivo
Hepatitis C virus = test: Antiviral activity against HCV infected in human hepatoma cells assessed as inhibition of viral RNA replication after 3 days by real time PCR analysis; type: functional, organism-based, Hepacivirus hominis; details: 72 h
[5] = system: RNA-directed RNA polymerase (Hepacivirus hominis), O39930 [G554D]; test: Inhibition of HCV NS5B RdRp G554D mutant palm allosteric site
Chain of RNA-directed RNA polymerase (Hepacivirus hominis), O39930 [G554D] (O39930 entry or part of it G554D): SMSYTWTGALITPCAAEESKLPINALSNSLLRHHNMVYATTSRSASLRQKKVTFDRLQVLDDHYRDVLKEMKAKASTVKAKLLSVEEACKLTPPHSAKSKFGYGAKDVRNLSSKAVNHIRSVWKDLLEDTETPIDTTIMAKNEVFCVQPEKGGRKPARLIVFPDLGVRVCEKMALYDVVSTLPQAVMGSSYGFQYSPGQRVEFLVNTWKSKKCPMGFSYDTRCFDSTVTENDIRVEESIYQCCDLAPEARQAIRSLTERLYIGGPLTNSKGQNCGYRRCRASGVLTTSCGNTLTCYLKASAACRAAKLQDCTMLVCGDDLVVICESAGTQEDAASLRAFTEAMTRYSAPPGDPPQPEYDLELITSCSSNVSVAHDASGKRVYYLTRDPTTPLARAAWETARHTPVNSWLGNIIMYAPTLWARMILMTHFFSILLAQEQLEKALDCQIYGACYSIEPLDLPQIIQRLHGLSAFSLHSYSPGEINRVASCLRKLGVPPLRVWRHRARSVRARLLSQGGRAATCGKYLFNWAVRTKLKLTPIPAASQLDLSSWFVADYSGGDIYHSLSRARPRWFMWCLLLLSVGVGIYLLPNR

[6] = Mutagenic activity in micronucleus (unknown origin); type: ADME
Rattus norvegicus [7] = species: Rattus norvegicus; test: Ratio of drug level from liver to plasma in rat assessed as 4-Fluoro-6-((7-fluoro-4-oxo-3,4-dihydroquinazolin-6-yl)methyl)-8-(2-oxo-1,2-dihydropyridin-3-yl)-6H-furo[2,3-e]indole-7-carboxylic acid after 6 hrs; details: other tissue
Rattus norvegicus [8] = test: AUC (0 to 24 hrs) in rat assessed as 4-Fluoro-6-((7-fluoro-4-oxo-3,4-dihydroquinazolin-6-yl)methyl)-8-(2-oxo-1,2-dihydropyridin-3-yl)-6H-furo[2,3-e]indole-7-carboxylic acid at 10 mg/kg, po; type: ADME, organism-based, Plasma; set-up: time < 24 hr, dose 10 mg/kg, route oral; details: in vivo
Canis familiaris [9] = test: AUC (0 to 24 hrs) in dog assessed as 4-Fluoro-6-((7-fluoro-4-oxo-3,4-dihydroquinazolin-6-yl)methyl)-8-(2-oxo-1,2-dihydropyridin-3-yl)-6H-furo[2,3-e]indole-7-carboxylic acid at 3 mg/kg, po; type: ADME, organism-based, Canis lupus familiaris, Plasma; set-up: time < 24 hr, dose 3 mg/kg, route oral; details: in vivo
Canis familiaris [10] = test: Oral bioavailability in dog assessed as 4-Fluoro-6-((7-fluoro-4-oxo-3,4-dihydroquinazolin-6-yl)methyl)-8-(2-oxo-1,2-dihydropyridin-3-yl)-6H-furo[2,3-e]indole-7-carboxylic acid; type: ADME, organism-based, Canis lupus familiaris; details: in vivo
[11] = system: RNA-directed RNA polymerase (Hepacivirus hominis), O39930 [C316Y]; test: Inhibition of HCV NS5B RdRp C316Y mutant palm allosteric site
Chain of RNA-directed RNA polymerase (Hepacivirus hominis), O39930 [C316Y] (O39930 entry or part of it C316Y): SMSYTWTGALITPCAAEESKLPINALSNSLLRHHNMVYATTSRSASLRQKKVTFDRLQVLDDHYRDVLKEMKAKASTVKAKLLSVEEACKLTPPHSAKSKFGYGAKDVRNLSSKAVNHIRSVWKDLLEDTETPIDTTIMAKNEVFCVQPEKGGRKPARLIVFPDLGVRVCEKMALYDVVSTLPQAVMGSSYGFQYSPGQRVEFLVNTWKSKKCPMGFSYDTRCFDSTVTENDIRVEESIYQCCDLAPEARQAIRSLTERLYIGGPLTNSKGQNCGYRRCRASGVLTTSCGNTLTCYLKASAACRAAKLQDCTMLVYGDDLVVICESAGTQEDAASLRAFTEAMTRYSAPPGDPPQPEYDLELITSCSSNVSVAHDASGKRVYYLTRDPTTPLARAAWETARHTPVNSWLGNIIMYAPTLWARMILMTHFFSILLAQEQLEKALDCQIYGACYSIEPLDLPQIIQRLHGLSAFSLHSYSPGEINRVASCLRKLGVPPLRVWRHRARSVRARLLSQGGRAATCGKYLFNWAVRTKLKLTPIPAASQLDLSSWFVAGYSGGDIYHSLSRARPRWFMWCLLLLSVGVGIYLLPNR

[12] = Solubility of the compound at pH 3; type: physicochemical; details: buffer
Rhesus monkey [13] = test: Half life in monkey assessed as 4-Fluoro-6-((7-fluoro-4-oxo-3,4-dihydroquinazolin-6-yl)methyl)-8-(2-oxo-1,2-dihydropyridin-3-yl)-6H-furo[2,3-e]indole-7-carboxylic acid at 1 mg/kg, iv; type: ADME, organism-based, Macaca mulatta; set-up: dose 1 mg/kg, route intravenous; details: in vivo
[14] = system: RNA-directed RNA polymerase (Hepacivirus hominis), O39930 [M414T]; test: Inhibition of HCV NS5B RdRp M414T mutant palm allosteric site
Chain of RNA-directed RNA polymerase (Hepacivirus hominis), O39930 [M414T] (O39930 entry or part of it M414T): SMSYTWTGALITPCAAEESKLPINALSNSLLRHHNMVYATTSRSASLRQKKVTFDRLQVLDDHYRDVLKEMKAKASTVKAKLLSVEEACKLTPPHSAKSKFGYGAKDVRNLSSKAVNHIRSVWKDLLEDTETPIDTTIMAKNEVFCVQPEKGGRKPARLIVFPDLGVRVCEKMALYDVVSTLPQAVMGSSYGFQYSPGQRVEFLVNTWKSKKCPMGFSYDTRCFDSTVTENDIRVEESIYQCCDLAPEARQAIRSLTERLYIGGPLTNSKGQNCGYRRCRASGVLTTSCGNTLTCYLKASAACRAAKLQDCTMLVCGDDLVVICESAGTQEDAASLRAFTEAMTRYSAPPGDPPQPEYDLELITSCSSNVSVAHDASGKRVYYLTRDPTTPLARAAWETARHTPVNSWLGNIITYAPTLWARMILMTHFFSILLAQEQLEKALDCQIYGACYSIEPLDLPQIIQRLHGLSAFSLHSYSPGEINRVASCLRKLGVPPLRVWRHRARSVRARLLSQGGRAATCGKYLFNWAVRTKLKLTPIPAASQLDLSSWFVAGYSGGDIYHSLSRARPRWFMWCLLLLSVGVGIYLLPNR

Rhesus monkey [15] = test: Cmax in monkey assessed as 4-Fluoro-6-((7-fluoro-4-oxo-3,4-dihydroquinazolin-6-yl)methyl)-8-(2-oxo-1,2-dihydropyridin-3-yl)-6H-furo[2,3-e]indole-7-carboxylic acid; type: ADME, organism-based, Macaca mulatta; details: in vivo
Rattus norvegicus [16] = test: Oral bioavailability in rat assessed as 4-Fluoro-6-((7-fluoro-4-oxo-3,4-dihydroquinazolin-6-yl)methyl)-8-(2-oxo-1,2-dihydropyridin-3-yl)-6H-furo[2,3-e]indole-7-carboxylic acid; type: ADME, organism-based; details: in vivo
[17] = system: RNA-directed RNA polymerase (Hepacivirus hominis), O39930 [C316Y]; test: Inhibition of HCV NS5B RdRp C316Y mutant active site
Canis familiaris [18] = test: Half life in dog assessed as 4-Fluoro-6-((7-fluoro-4-oxo-3,4-dihydroquinazolin-6-yl)methyl)-8-(2-oxo-1,2-dihydropyridin-3-yl)-6H-furo[2,3-e]indole-7-carboxylic acid at 1 mg/kg, iv; type: ADME, organism-based, Canis lupus familiaris; set-up: dose 1 mg/kg, route intravenous; details: in vivo
Rattus norvegicus [19] = test: Half life in rat assessed as 4-Fluoro-6-((7-fluoro-4-oxo-3,4-dihydroquinazolin-6-yl)methyl)-8-(2-oxo-1,2-dihydropyridin-3-yl)-6H-furo[2,3-e]indole-7-carboxylic acid at 3 mg/kg, iv; type: ADME, organism-based; set-up: dose 3 mg/kg, route intravenous; details: in vivo
[20] = Inhibition of HCV genotype 1b C-terminal polyhistidine-tagged NS5B Cdelta21 RdRp expressed in Escherichia coli using DCoH75 as template assessed as incorporation of [33P]-CTP in polynucleotide sequence after 2 hrs by scintillation counting analysis; set-up: species or system Hepatitis C virus subtype 1b
[21] = system: RNA-directed RNA polymerase (Hepacivirus hominis), O39930 [G554D]; test: Inhibition of HCV NS5B RdRp G554D mutant active site
[22] = system: RNA-directed RNA polymerase (Hepacivirus hominis), O39930 [M414T]; test: Inhibition of HCV NS5B RdRp M414T mutant active site

## CN(C)CCOC(=O)c1c(-c2ccc[nH]c2=O)c2c3occc3c(F)cc2n1Cc1cc2c(=O)[nH]cnc2cc1F.Cl
Rhesus monkey [1]
  AUC: 144 µM·h
Rattus norvegicus [2]
  Cmax: 2.1 µM
Rhesus monkey [3]
  F: 63%
Salmonella typhimurium
  Activity: Non-toxic
Canis familiaris [4]
  Cmax: 0.8 µM
Hepatitis C virus
  pEC50: 8.30
[5]
  inhibition: inactive
[6]
  Activity: Non-toxic
Rattus norvegicus [7]
  Ratio: 0.5
Rattus norvegicus [8]
  AUC: 22 µM·h
Canis familiaris [9]
  AUC: 2.4 µM·h
Canis familiaris [10]
  F: 29%
[11]
  inhibition: inactive
[12]
  solubility: 900 µM
Rhesus monkey [13]
  t1/2: 22 h
[14]
  inhibition: inactive
Rhesus monkey [15]
  Cmax: 4.1 µM
Rattus norvegicus [16]
  F: 2%
[17]
  inhibition: Active
Canis familiaris [18]
  t1/2: 4 h
Rattus norvegicus [19]
  t1/2: 11 h
[20]
  pIC50: 6.82
[21]
  inhibition: Active
[22]
  inhibition: Active
